According to patent publication US12427212B2, “Nectin-4 binding miniproteins, conjugates and uses thereof” (Aktis Oncology, Inc., priority 2023, dated 2025):
Bridges are numbered along the chain shown (N, C = ends). [ ]: non-standard residue; d: D form. The star is where a group is joined. DOTA = O=C(O)CN1CCN(CC(=O)O)CCN(CC(=O)*)CCN(CC(=O)O)CC1; Lys(Me3) = C[N+](C)(C)CCCC[C@H](N)C(=O)O; Cit = NC(=O)NCCC[C@H](N)C(=O)O; PEG4 = NCCOCCOCCOCCOCCC(=O)O

Key:
[1] = test system: un-transfected HEK293 cells; assay: Background binding to un-transfected HEK293 cells (cell microarray suitability); type: cell-based, human; conditions: biotin-labeled molecules
Description: To evaluate potential off-target binding, six biotin-labeled molecules were tested in a cell microarray platform having 6,416 different human proteins spanning diverse functions and subcellular locations.

in vivo = conditions: Sprague Dawley, rat, iv
Description: To begin, double jugular vein-cannulated Sprague Dawley rats were dosed with bolus intravenous injections of miniproteins (0.03-0.3 mg/kg) and FITC-sinistrin. Nine blood collection timepoints were taken from 0-2 h, processed to plasma with K2 EDTA, and were frozen for subsequent bioanalysis. Plasma miniprotein concentrations were measured by LC-MS/MS. To control for inter-animal renal clearance differences, and to compare with glomerular filtration rate (GFR), the miniprotein was co-formulated with a molecular marker of GFR, FITC-sinistrin (FS) (Pill et al., 2005). Plasma FITC-sinistrin was measured fluorometrically. All unknown sample measurements were interpolated against known authentic standards spiked into normal rat plasma to calculate concentration. Finally, non-compartmental analysis was performed to estimate plasma pharmacokinetic parameters.

Molecule | Background binding to un-transfected HEK293 cells [1] | half-life (in vivo) [min]
CC[C@H](C)[C@@H]1NC(=O)[C@H](Cc2ccc(O)cc2)NC(=O)[C@H](CCC(=O)O)NC(=O)[C@@H]2CSSC[C@@H](C(=O)N[C@@H](CO)C(=O)O)NC(=O)CNC(=O)[C@H](CC(C)C)NC(=O)[C@H](CC(N)=O)NC(=O)[C@H](CC(=O)O)NC(=O)[C@H](CC(C)C)NC(=O)[C@H]([C@@H](C)CC)NC(=O)[C@H](CCC(=O)O)NC(=O)[C@H](CCC(=O)O)NC(=O)[C@H]([C@@H](C)CC)NC(=O)[C@H](CSSC[C@H](NC(=O)CCOCCOCCOCCOCCNC(=O)CCCC[C@@H]3SC[C@@H]4NC(=O)N[C@@H]43)C(=O)N[C@@H](CC(=O)O)C(=O)N[C@@H](Cc3ccc(O)cc3)C(=O)N[C@@H](CC(=O)O)C(=O)N[C@@H](CCC(=O)O)C(=O)N[C@@H](CCC(N)=O)C(=O)N[C@@H](Cc3ccccc3)C(=O)N[C@@H](Cc3ccccc3)C(=O)N[C@@H]([C@@H](C)O)C(=O)N[C@@H](C)C(=O)N[C@@H](CC(C)C)C(=O)N[C@@H](CCCCN)C(=O)N[C@@H](CCCNC(=N)N)C(=O)N[C@@H](CC(C)C)C(=O)N[C@@H](CCCNC(=N)N)C(=O)NCC(=O)NCC(=O)N[C@@H](CC(=O)O)C(=O)N[C@@H]([C@@H](C)CC)C(=O)N2)NC(=O)[C@H](CC(C)C)NC(=O)CNC(=O)[C@@H]2CCCN2C(=O)[C@H](CC(C)C)NC(=O)[C@H](Cc2ccc(O)cc2)NC(=O)[C@H](CCC(N)=O)NC(=O)[C@H](Cc2ccccc2)NC(=O)[C@H](CO)NC(=O)[C@H](C)NC(=O)[C@H](CCC(N)=O)NC1=O [Compound C190] | low-background binding | –
CC[C@H](C)[C@@H]1NC(=O)[C@H](Cc2ccc(O)cc2)NC(=O)[C@H](CC(=O)O)NC(=O)[C@@H]2CSSC[C@@H](C(=O)N[C@@H](CO)C(=O)O)NC(=O)CNC(=O)[C@H](CC(C)C)NC(=O)[C@H](CC(N)=O)NC(=O)[C@H](CC(=O)O)NC(=O)[C@H](CC(C)C)NC(=O)[C@H]([C@@H](C)CC)NC(=O)[C@H](CCC(=O)O)NC(=O)[C@H](CCC(=O)O)NC(=O)[C@H]([C@@H](C)CC)NC(=O)[C@H](CSSC[C@H](NC(=O)CCOCCOCCOCCOCCNC(=O)CCCC[C@@H]3SC[C@@H]4NC(=O)N[C@@H]43)C(=O)N[C@@H](CCC(=O)O)C(=O)N[C@@H](Cc3ccc(O)cc3)C(=O)N[C@@H](CC(=O)O)C(=O)N[C@@H](CCC(=O)O)C(=O)N[C@@H](CCC(N)=O)C(=O)N[C@@H](Cc3ccccc3)C(=O)N[C@@H](Cc3ccccc3)C(=O)N[C@@H]([C@@H](C)O)C(=O)N[C@@H](C)C(=O)N[C@@H](CC(C)C)C(=O)N[C@@H](CCCCN)C(=O)N[C@@H](CCCNC(=N)N)C(=O)N[C@@H](CC(C)C)C(=O)N[C@@H](CCCNC(=N)N)C(=O)NCC(=O)N[C@@H](CC(=O)O)C(=O)N[C@@H](CC(=O)O)C(=O)N[C@@H]([C@@H](C)CC)C(=O)N2)NC(=O)[C@H](CC(C)C)NC(=O)CNC(=O)[C@@H]2CCCN2C(=O)[C@H](CC(C)C)NC(=O)[C@H](Cc2ccc(O)cc2)NC(=O)[C@H](CCC(N)=O)NC(=O)[C@H](Cc2ccccc2)NC(=O)[C@H](CO)NC(=O)[C@H](C)NC(=O)[C@H](CCC(N)=O)NC1=O [Compound C197] | low-background binding | –
CC[C@H](C)[C@@H]1NC(=O)[C@H](Cc2ccc(O)cc2)NC(=O)[C@H](CCC(=O)O)NC(=O)[C@@H]2CSSC[C@@H](C(=O)N[C@@H](CO)C(=O)O)NC(=O)CNC(=O)[C@H](CC(C)C)NC(=O)[C@H](CC(N)=O)NC(=O)[C@H](CC(=O)O)NC(=O)[C@H](CC(C)C)NC(=O)[C@H]([C@@H](C)CC)NC(=O)[C@H](CCC(=O)O)NC(=O)[C@H](CCC(=O)O)NC(=O)[C@H]([C@@H](C)CC)NC(=O)[C@H](CSSC[C@H](NC(=O)CCOCCOCCOCCOCCNC(=O)CCCC[C@@H]3SC[C@@H]4NC(=O)N[C@@H]43)C(=O)N[C@@H](CC(=O)O)C(=O)N[C@@H](Cc3ccc(O)cc3)C(=O)N[C@@H](CC(=O)O)C(=O)N[C@@H](CCC(=O)O)C(=O)N[C@@H](CCC(N)=O)C(=O)N[C@@H](Cc3ccccc3)C(=O)N[C@@H](Cc3ccccc3)C(=O)N[C@@H]([C@@H](C)O)C(=O)N[C@@H](C)C(=O)N[C@@H](CC(C)C)C(=O)N[C@@H](CCCCN)C(=O)N[C@@H](CCCNC(=N)N)C(=O)N[C@@H](CC(C)C)C(=O)N[C@@H](CCCNC(=N)N)C(=O)NCC(=O)N[C@@H](C)C(=O)N[C@@H](CC(=O)O)C(=O)N[C@@H]([C@@H](C)CC)C(=O)N2)NC(=O)[C@H](CCC(=O)O)NC(=O)CNC(=O)[C@@H]2CCCN2C(=O)[C@H](CC(C)C)NC(=O)[C@H](Cc2ccc(O)cc2)NC(=O)[C@H](CCC(N)=O)NC(=O)[C@H](Cc2ccccc2)NC(=O)[C@H](CO)NC(=O)[C@H](C)NC(=O)[C@H](CCC(N)=O)NC1=O [Compound C208] | low-background binding | –
CC[C@H](C)[C@@H]1NC(=O)[C@H](Cc2ccc(O)cc2)NC(=O)[C@H](CCC(=O)O)NC(=O)[C@@H]2CSSC[C@@H](C(=O)N[C@@H](CO)C(=O)O)NC(=O)CNC(=O)[C@H](CC(C)C)NC(=O)[C@H](CC(N)=O)NC(=O)[C@H](CC(=O)O)NC(=O)[C@H](CC(C)C)NC(=O)[C@H]([C@@H](C)CC)NC(=O)[C@H](CCC(=O)O)NC(=O)[C@H](CCC(=O)O)NC(=O)[C@H]([C@@H](C)CC)NC(=O)[C@H](CSSC[C@H](NC(=O)CCOCCOCCOCCOCCNC(=O)CN3CCN(CC(=O)O)CCN(CC(=O)O)CCN(CC(=O)O)CC3)C(=O)N[C@@H](CC(=O)O)C(=O)N[C@@H](Cc3ccc(O)cc3)C(=O)N[C@@H](CC(=O)O)C(=O)N[C@@H](CCC(=O)O)C(=O)N[C@@H](CCC(N)=O)C(=O)N[C@@H](Cc3ccccc3)C(=O)N[C@@H](Cc3ccccc3)C(=O)N[C@@H]([C@@H](C)O)C(=O)N[C@@H](C)C(=O)N[C@@H](CC(C)C)C(=O)N[C@@H](C)C(=O)N[C@@H](CCCNC(=N)N)C(=O)N[C@@H](CC(C)C)C(=O)N[C@@H](CCCNC(=N)N)C(=O)NCC(=O)N[C@@H](C)C(=O)N[C@@H](CC(=O)O)C(=O)N[C@@H]([C@@H](C)CC)C(=O)N2)NC(=O)[C@H](CCC(=O)O)NC(=O)CNC(=O)[C@@H]2CCCN2C(=O)[C@H](CC(C)C)NC(=O)[C@H](Cc2ccc(O)cc2)NC(=O)[C@H](CCC(N)=O)NC(=O)[C@H](Cc2ccccc2)NC(=O)[C@H](CO)NC(=O)[C@H](C)NC(=O)[C@H](CCC(N)=O)NC1=O [Compound C246] | – | 38
CC[C@H](C)[C@@H]1NC(=O)[C@H](Cc2ccc(O)cc2)NC(=O)[C@H](CCC(=O)O)NC(=O)[C@@H]2CSSC[C@@H](C(=O)N[C@@H](CO)C(=O)O)NC(=O)CNC(=O)[C@H](CC(C)C)NC(=O)[C@H](CC(N)=O)NC(=O)[C@H](CC(=O)O)NC(=O)[C@H](CC(C)C)NC(=O)[C@H]([C@@H](C)CC)NC(=O)[C@H](CCC(=O)O)NC(=O)[C@H](CCC(=O)O)NC(=O)[C@H]([C@@H](C)CC)NC(=O)[C@H](CSSC[C@H](NC(=O)CCOCCOCCOCCOCCNC(=O)CN3CCN(CC(=O)O)CCN(CC(=O)O)CCN(CC(=O)O)CC3)C(=O)N[C@@H](CC(=O)O)C(=O)N[C@@H](Cc3ccc(O)cc3)C(=O)N[C@@H](CC(=O)O)C(=O)N[C@@H](CCC(=O)O)C(=O)N[C@@H](CCC(N)=O)C(=O)N[C@@H](Cc3ccccc3)C(=O)N[C@@H](Cc3ccccc3)C(=O)N[C@@H]([C@@H](C)O)C(=O)N[C@@H](C)C(=O)N[C@@H](CC(C)C)C(=O)N[C@@H](CCCCN)C(=O)N[C@@H](CCCNC(=N)N)C(=O)N[C@@H](CC(C)C)C(=O)N[C@@H](CCCNC(=N)N)C(=O)NCC(=O)N[C@@H](C)C(=O)N[C@@H](CC(=O)O)C(=O)N[C@@H]([C@@H](C)CC)C(=O)N2)NC(=O)[C@H](CCC(=O)O)NC(=O)CNC(=O)[C@@H]2CCCN2C(=O)[C@H](CC(C)C)NC(=O)[C@H](Cc2ccc(O)cc2)NC(=O)[C@H](CCC(N)=O)NC(=O)[C@H](Cc2ccccc2)NC(=O)[C@H](CO)NC(=O)[C@H](C)NC(=O)[C@H](CCC(N)=O)NC1=O [Compound C270] | – | 28.3
{DOTA-PEG4}-CDYDEQFFTALA[Cit]LRGGDICEYIQA[Lys(Me3)]FQYLPGLCIEEILDNLGCS-OH (disulfide 1-34, 20-44 (inferred)) [Compound C261] | – | 28.7
{DOTA-PEG4}-CEYDEEFFTALARLRGGDICQYIQAKFQYLPGQCIEEILDNLGCS-OH (disulfide 1-34, 20-44) [Compound C242] | – | 29.7
{DOTA-PEG4}-CEYDEEFFTALKRLRGGDICYYIQAKFQYLPKLCIEEILDNLGCS-OH (disulfide 1-34, 20-44) [Compound C118] | – | 19.7
{DOTA-PEG4}-CEYDEQFFTALARLRGGDICEYIQAKFQYLPGLCIEEILDNLGCS-OH (disulfide 1-34, 20-44) [Compound C219] | – | 25.4
{DOTA-PEG4}-CEYDEQFFTALKALRGGDICYYIQASFNYLPDLCIEEILDNLGCS-OH (disulfide 1-34, 20-44 (inferred)) [Compound C114] | – | 25.5
